Experiments:
HL-60(TB) = experiment: Growth inhibition of human HL-60(TB) cells at 10 uM incubated for 48 hrs by sulforhodamine B assay relative to control; format: functional; conditions: HL-60, 48 h, read-out: GI
MOLT-4 = experiment: Growth inhibition of human MOLT4 cells at 10 uM incubated for 48 hrs by sulforhodamine B assay relative to control; format: functional; conditions: MOLT-4, 48 h, read-out: GI
EKVX = experiment: Growth inhibition of human EKVX cells at 10 uM incubated for 48 hrs by sulforhodamine B assay relative to control; format: functional; conditions: read-out: GI
NCI-H226 = experiment: Growth inhibition of human NCI-H226 cells at 10 uM incubated for 48 hrs by sulforhodamine B assay relative to control; format: functional; conditions: NCI-H226, 48 h, read-out: GI
HCT-116 = experiment: Growth inhibition of human HCT116 cells at 10 uM incubated for 48 hrs by sulforhodamine B assay relative to control; format: functional; conditions: HCT-116, 48 h, read-out: GI
KM12 = experiment: Growth inhibition of human KM12 cells at 10 uM incubated for 48 hrs by sulforhodamine B assay relative to control; format: functional; conditions: KM12, 48 h, read-out: GI
SF-295 = experiment: Growth inhibition of human SF295 cells at 10 uM incubated for 48 hrs by sulforhodamine B assay relative to control; format: functional; conditions: SF-295, 48 h, read-out: GI
SF-539 = experiment: Growth inhibition of human SF539 cells at 10 uM incubated for 48 hrs by sulforhodamine B assay relative to control; format: functional; conditions: SF-539, 48 h, read-out: GI
LOX IMVI = experiment: Growth inhibition of human LOXIMVI cells at 10 uM incubated for 48 hrs by sulforhodamine B assay relative to control; format: functional; conditions: read-out: GI
MDA-MB-435 = experiment: Growth inhibition of human MDA-MB-435 cells at 10 uM incubated for 48 hrs by sulforhodamine B assay relative to control; format: functional; conditions: MDA-MB-435, 48 h, read-out: GI
UACC-257 = experiment: Growth inhibition of human UACC257 cells at 10 uM incubated for 48 hrs by sulforhodamine B assay relative to control; format: functional; conditions: UACC-257, 48 h, read-out: GI
UACC-62 = experiment: Growth inhibition of human UACC62 cells at 10 uM incubated for 48 hrs by sulforhodamine B assay relative to control; format: functional; conditions: UACC-62, 48 h, read-out: GI
IGROV-1 = experiment: Growth inhibition of human IGROV1 cells at 10 uM incubated for 48 hrs by sulforhodamine B assay relative to control; format: functional; conditions: IGROV-1, 48 h, read-out: GI
NCI/ADR-RES = experiment: Growth inhibition of human NCI/ADR-RES cells at 10 uM incubated for 48 hrs by sulforhodamine B assay relative to control; format: functional; conditions: read-out: GI
A498 = experiment: Growth inhibition of human A498 cells at 10 uM incubated for 48 hrs by sulforhodamine B assay relative to control; format: functional; conditions: A498, 48 h, read-out: GI
TK-10 = experiment: Growth inhibition of human TK10 cells at 10 uM incubated for 48 hrs by sulforhodamine B assay relative to control; format: functional; conditions: TK-10, 48 h, read-out: GI
UO-31 = experiment: Growth inhibition of human UO31 cells at 10 uM incubated for 48 hrs by sulforhodamine B assay relative to control; format: functional; conditions: UO-31, 48 h, read-out: GI
PC-3 = experiment: Growth inhibition of human PC3 cells at 10 uM incubated for 48 hrs by sulforhodamine B assay relative to control; format: functional; conditions: PC-3, 48 h, read-out: GI
T47D = experiment: Growth inhibition of human T47D cells at 10 uM incubated for 48 hrs by sulforhodamine B assay relative to control; format: functional; conditions: read-out: GI
MDA-MB-468 = experiment: Growth inhibition of human MDA-MB-468 cells at 10 uM incubated for 48 hrs by sulforhodamine B assay relative to control; format: functional; conditions: MDA-MB-468, 48 h, read-out: GI
PANC-1 = experiment: Antiproliferative activity against human PANC1 cells after 48 hrs by propidium iodide staining-based fluorometric analysis; format: functional, cell-based; conditions: PANC-1, 48 h
MIA PaCa-2 = experiment: Antiproliferative activity against human MIAPaCa2 cells after 48 hrs by propidium iodide staining-based fluorometric analysis; format: functional, cell-based; conditions: MIA PaCa-2, 48 h
HT-29 = experiment: Antiproliferative activity against human HT-29 cells after 48 hrs by propidium iodide staining-based fluorometric analysis; format: functional, cell-based; conditions: HT-29, 48 h
NCI-H460 = experiment: Antiproliferative activity against human H460 cells after 48 hrs by propidium iodide staining-based fluorometric analysis; format: functional, cell-based; conditions: NCI-H460, 48 h
SR = experiment: Growth inhibition of human SR cells at 10 uM incubated for 48 hrs by sulforhodamine B assay relative to control; format: functional; conditions: read-out: GI
SK-MEL-28 = experiment: Growth inhibition of human SK-MEL-28 cells at 10 uM incubated for 48 hrs by sulforhodamine B assay relative to control; format: functional; conditions: SK-MEL-28, 48 h, read-out: GI
BT-549 = experiment: Growth inhibition of human BT549 cells at 10 uM incubated for 48 hrs by sulforhodamine B assay relative to control; format: functional; conditions: BT-549, 48 h, read-out: GI

**Q.** For `Clc1ccc(-c2cn3nc(-c4ccccc4)nc3s2)cc1`, which inhibition of growth at 10 µM (HL-60(TB)) is on record?
**A.** Its inhibition of growth at 10 µM is 15%.

**Q.** What about the inhibition of growth at 10 µM (MOLT-4) of the same molecule?
**A.** The inhibition of growth at 10 µM was 8%.

**Q.** And the inhibition of growth at 10 µM (EKVX)?
**A.** Its inhibition of growth at 10 µM is 28%.

**Q.** And the inhibition of growth at 10 µM (NCI-H226)?
**A.** The inhibition of growth at 10 µM was 32%.

**Q.** And the inhibition of growth at 10 µM (HCT-116)?
**A.** Its inhibition of growth at 10 µM is 41%.

**Q.** And the inhibition of growth at 10 µM (KM12)?
**A.** Its inhibition of growth at 10 µM is 30%.

**Q.** And the inhibition of growth at 10 µM (SF-295)?
**A.** Its inhibition of growth at 10 µM is 21%.

**Q.** What about the inhibition of growth at 10 µM (SF-539) of the same molecule?
**A.** The inhibition of growth at 10 µM was 21%.

**Q.** And the inhibition of growth at 10 µM (LOX IMVI)?
**A.** The inhibition of growth at 10 µM was 19%.

**Q.** And the inhibition of growth at 10 µM (MDA-MB-435)?
**A.** Its inhibition of growth at 10 µM is 11%.

**Q.** And the inhibition of growth at 10 µM (UACC-257)?
**A.** Its inhibition of growth at 10 µM is 15%.

**Q.** And the inhibition of growth at 10 µM (UACC-62)?
**A.** Its inhibition of growth at 10 µM is 18%.

**Q.** What about the inhibition of growth at 10 µM (IGROV-1) of the same molecule?
**A.** Its inhibition of growth at 10 µM is 55%.

**Q.** What about the inhibition of growth at 10 µM (NCI/ADR-RES) of the same molecule?
**A.** Its inhibition of growth at 10 µM is 34%.

**Q.** What about the inhibition of growth at 10 µM (A498) of the same molecule?
**A.** Its inhibition of growth at 10 µM is 52%.

**Q.** And the inhibition of growth at 10 µM (TK-10)?
**A.** The inhibition of growth at 10 µM was 18%.

**Q.** What about the inhibition of growth at 10 µM (UO-31) of the same molecule?
**A.** Its inhibition of growth at 10 µM is 40%.

**Q.** What about the inhibition of growth at 10 µM (PC-3) of the same molecule?
**A.** The inhibition of growth at 10 µM was 31%.

**Q.** And the inhibition of growth at 10 µM (T47D)?
**A.** The inhibition of growth at 10 µM was 74%.

**Q.** And the inhibition of growth at 10 µM (MDA-MB-468)?
**A.** The inhibition of growth at 10 µM was 57%.

**Q.** And the IC50 (PANC-1)?
**A.** Its IC50 is 5.2 µM.

**Q.** What about the IC50 (MIA PaCa-2) of the same molecule?
**A.** The IC50 was 6.5 µM.

**Q.** And the IC50 (HT-29)?
**A.** The IC50 was 5.9 µM.

**Q.** And the IC50 (NCI-H460)?
**A.** The IC50 was 5.1 µM.

**Q.** For `COc1cc(-c2nc3sc(-c4ccccc4)cn3n2)cc(OC)c1OC`, which inhibition of growth at 10 µM (HL-60(TB)) is on record?
**A.** Its inhibition of growth at 10 µM is 37%.

**Q.** And the inhibition of growth at 10 µM (MOLT-4)?
**A.** The inhibition of growth at 10 µM was 44%.

**Q.** What about the inhibition of growth at 10 µM (SR) of the same molecule?
**A.** Its inhibition of growth at 10 µM is 65%.

**Q.** And the inhibition of growth at 10 µM (EKVX)?
**A.** Its inhibition of growth at 10 µM is 63%.

**Q.** And the inhibition of growth at 10 µM (NCI-H226)?
**A.** Its inhibition of growth at 10 µM is 23%.

**Q.** What about the inhibition of growth at 10 µM (HCT-116) of the same molecule?
**A.** Its inhibition of growth at 10 µM is 40%.

**Q.** And the inhibition of growth at 10 µM (KM12)?
**A.** The inhibition of growth at 10 µM was 14%.

**Q.** What about the inhibition of growth at 10 µM (SF-295) of the same molecule?
**A.** Its inhibition of growth at 10 µM is 16%.

**Q.** What about the inhibition of growth at 10 µM (SF-539) of the same molecule?
**A.** The inhibition of growth at 10 µM was 15%.

**Q.** And the inhibition of growth at 10 µM (LOX IMVI)?
**A.** The inhibition of growth at 10 µM was 33%.

**Q.** What about the inhibition of growth at 10 µM (MDA-MB-435) of the same molecule?
**A.** Its inhibition of growth at 10 µM is 16%.

**Q.** What about the inhibition of growth at 10 µM (SK-MEL-28) of the same molecule?
**A.** The inhibition of growth at 10 µM was 4%.

**Q.** What about the inhibition of growth at 10 µM (UACC-257) of the same molecule?
**A.** The inhibition of growth at 10 µM was 10%.

**Q.** And the inhibition of growth at 10 µM (UACC-62)?
**A.** The inhibition of growth at 10 µM was 31%.

**Q.** And the inhibition of growth at 10 µM (NCI/ADR-RES)?
**A.** The inhibition of growth at 10 µM was 39%.

**Q.** What about the inhibition of growth at 10 µM (A498) of the same molecule?
**A.** The inhibition of growth at 10 µM was 29%.

**Q.** What about the inhibition of growth at 10 µM (TK-10) of the same molecule?
**A.** The inhibition of growth at 10 µM was 6%.

**Q.** What about the inhibition of growth at 10 µM (UO-31) of the same molecule?
**A.** The inhibition of growth at 10 µM was 43%.

**Q.** And the inhibition of growth at 10 µM (PC-3)?
**A.** Its inhibition of growth at 10 µM is 53%.

**Q.** And the inhibition of growth at 10 µM (BT-549)?
**A.** The inhibition of growth at 10 µM was 18%.

**Q.** What about the inhibition of growth at 10 µM (T47D) of the same molecule?
**A.** Its inhibition of growth at 10 µM is 55%.

**Q.** What about the inhibition of growth at 10 µM (MDA-MB-468) of the same molecule?
**A.** Its inhibition of growth at 10 µM is 35%.

**Q.** And the IC50 (PANC-1)?
**A.** Its IC50 is 4.9 µM.

**Q.** And the IC50 (MIA PaCa-2)?
**A.** Its IC50 is 4.7 µM.

**Q.** And the IC50 (HT-29)?
**A.** The IC50 was 4.9 µM.

**Q.** And the IC50 (NCI-H460)?
**A.** The IC50 was 4.8 µM.

From ChEMBL document CHEMBL4270577, “Synthesis, anticancer activity and molecular modeling studies of 1,2,4-triazole derivatives as EGFR inhibitors” (Eur J Med Chem, 2018)
